According to publication PMC4700476, “Differential regulation by AMP and ADP of AMPK complexes containing different γ subunit isoforms” (Biochemical Journal, 2016):

How the values were obtained:
[1] = test system: γ3-containing AMPK complexes in HEK-293 cells expressing FLAG–γ3; assay: Activation of AMPK complexes in intact cells (anti-FLAG IP kinase assay and pThr172 blot); format: cell-based, human; conditions: for AMPK activation and Thr172 phosphorylation in intact cells: γ3 complex, 60 min, phenformin 10 mM, berberine 300 μM, A23187 10 μM, A-769662 300 μM
Method: (§1) HEK-293 cells expressing tetracycline-inducible human γ1, γ2 and γ3 with N-terminal FLAG tags were obtained by inserting the appropriate DNA into cells carrying a Flp recombinase target site with co-transfection of DNA encoding Flp recombinase; expression of the γ subunits was induced by adding tetracycline (1 μg·ml^−1) to the medium for 48 h.
(§2) HEK-293 cells were grown in Dulbecco's modified Eagle's medium (DMEM) containing 4.5 g/l glucose, 10% (v/v) FBS, 100 units/ml penicillin, 100 μg/ml streptomycin, 200 μg/ml hygromycin and 15 μg/ml blasticidin. The medium was replaced with medium containing 1 g/l glucose, 16 h before the treatments described in the text.
(§3) Cell lysates were made using the rapid lysis procedure. Lysates containing stably expressed recombinant FLAG-tagged γ subunits were immunoprecipitated from HEK-293 cell lysates (90 μg of lysate protein) by incubation at 4°C for 2 h on a roller mixer with 7.5 μl of EZview Red anti-FLAG M2 affinity gel (Sigma–Aldrich). After extensive washing, the immunoprecipitates (IPs) were assayed for AMPK activity on an orbital shaker as described previously except that the AMARA peptide substrate was used in all assays apart from those shown in Figures 3 and 4. The SAMS peptide was used in the latter because, for reasons that remain unclear, the degree of allosteric activation is always greater using this substrate.
(§4) Figure 2 Activation of FLAG–γ1,–γ2 or–γ3 by various AMPK activators Cells expressing FLAG–γ1,–γ2 or–γ3 were incubated with DMSO (vehicle), phenformin (10 mM), berberine (300 μM), A23187 (10 μM) or A-769662 (300 μM) for 60 min, AMPK complexes were immunoprecipitated using anti-FLAG antibodies and were analysed by kinase assays (upper panel) and Western blotting (lower panel). […] The absolute activities (nmol/min/mg of lysate protein) in the DMSO controls were: 0.16±0.01 (γ1), 0.24±0.01 (γ2) and 0.053±0.001 (γ3; means ± S.E.M., n=3).

[2] = test system: γ1-containing AMPK complexes in mouse skeletal muscle; design: method as in PMID 25695398; conditions: cited from earlier work
[3] = test system: γ3-containing AMPK complexes in mouse skeletal muscle; design: method as in PMID 25695398; conditions: cited from earlier work
[4] = test system: γ1-containing AMPK complexes in HEK-293 cells expressing FLAG–γ1; assay: Activation of AMPK complexes in intact cells (anti-FLAG IP kinase assay and pThr172 blot); format: cell-based, human; conditions: γ1 complex; 60 min; phenformin 10 mM, berberine 300 μM, A23187 10 μM, A-769662 300 μM
Method: as §1, §2, §3, §4

[5] = test system: γ2-containing AMPK complexes in HEK-293 cells expressing FLAG–γ2; assay: as above; format: cell-based, human; conditions: γ2 complex; 60 min; phenformin 10 mM, berberine 300 μM, A23187 10 μM, A-769662 300 μM
Method: as §1, §2, §3, §4

AMPK = test system: AMPK; design: method as in PMID 24746562; conditions: AMPK not phosphorylated on Thr172; cited from earlier work
rat hepatocytes = test system: rat hepatocytes; design: method as in PMID 17855357; conditions: cited from earlier work

SMILES | AMPK activation and Thr172 phosphorylation in intact cells [4] | AMPK activation and Thr172 phosphorylation in intact cells [5] | AMPK activation and Thr172 phosphorylation in intact cells [1] | also measured
O=C(O)c1ccc2c3c1cccc3c(=O)n1c3ccccc3nc21 [STO-609] |  |  |  | effect on activation of γ3 complex by A23187 ([1]; results not shown): completely blocked
NC(=O)c1ncn([C@@H]2O[C@H](CO)[C@@H](O)[C@H]2O)c1N [AICAR, 5-aminoimidazole-4-carboxamide riboside] |  |  |  | activation of γ1-containing complexes [2]: activated both isoforms; activation of γ3-containing complexes [3]: activated both isoforms
CNc1ccc2oc(C[C@H]3O[C@@]4(CC[C@H]3C)O[C@H]([C@H](C)C(=O)c3ccc[nH]3)[C@H](C)C[C@H]4C)nc2c1C(=O)O [A23187] | activated | activated | activated | 
COc1ccc2cc3[n+](cc2c1OC)CCc1cc2c(cc1-3)OCO2 [berberine, Berberine chloride] | activated | activated | activated | 
N#Cc1c(O)c2c(-c3ccc(-c4ccccc4O)cc3)csc2[nH]c1=O [A-769662] | did not significantly activate | only modest increases | only modest increases | allosteric activation of AMPK (AMPK): > 60 fold; increases in Thr172 phosphorylation (rat hepatocytes): negligible; phosphorylation of acetyl-CoA carboxylase (ACC) (rat hepatocytes): marked phosphorylation
[H]/N=C(/N)N/C(=N/[H])NCCc1ccccc1 [phenformin] | activated | activated | activated | 
